Assays:
KAT2A = KAT2A (Homo sapiens, UniProt Q92830); assay: KAT2A degradation, Western Blot (Jess), NCI-H1048 cells; type: cell-based; parameters: degrader, Western blot (Jess); conditions: NCI-H1048 cells, KAT2A, 24 h, Western Blot, vs DMSO; read-out: KAT2A NCI-H1048 DC50
Summary of the method: (§1)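 NCI-H1048 cells grown in HITES medium with 5% FBS were treated with compounds for 24 h at 37° C. Lysates were run by capillary Western (Jess) with KAT2A or KAT2B antibodies and chemiluminescent detection. DC50 derived from percent protein reduction versus DMSO control.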

KAT2B = KAT2B (Homo sapiens, UniProt Q92831); assay: KAT2B degradation, Western Blot (Jess), NCI-H1048 cells; type: cell-based; parameters: degrader, Western blot (Jess); conditions: NCI-H1048 cells, KAT2B, 24 h, Western Blot, vs DMSO; read-out: KAT2B NCI-H1048 DC50
Summary of the method: as §1

KAT2A, sequence (Q92830 whole entry): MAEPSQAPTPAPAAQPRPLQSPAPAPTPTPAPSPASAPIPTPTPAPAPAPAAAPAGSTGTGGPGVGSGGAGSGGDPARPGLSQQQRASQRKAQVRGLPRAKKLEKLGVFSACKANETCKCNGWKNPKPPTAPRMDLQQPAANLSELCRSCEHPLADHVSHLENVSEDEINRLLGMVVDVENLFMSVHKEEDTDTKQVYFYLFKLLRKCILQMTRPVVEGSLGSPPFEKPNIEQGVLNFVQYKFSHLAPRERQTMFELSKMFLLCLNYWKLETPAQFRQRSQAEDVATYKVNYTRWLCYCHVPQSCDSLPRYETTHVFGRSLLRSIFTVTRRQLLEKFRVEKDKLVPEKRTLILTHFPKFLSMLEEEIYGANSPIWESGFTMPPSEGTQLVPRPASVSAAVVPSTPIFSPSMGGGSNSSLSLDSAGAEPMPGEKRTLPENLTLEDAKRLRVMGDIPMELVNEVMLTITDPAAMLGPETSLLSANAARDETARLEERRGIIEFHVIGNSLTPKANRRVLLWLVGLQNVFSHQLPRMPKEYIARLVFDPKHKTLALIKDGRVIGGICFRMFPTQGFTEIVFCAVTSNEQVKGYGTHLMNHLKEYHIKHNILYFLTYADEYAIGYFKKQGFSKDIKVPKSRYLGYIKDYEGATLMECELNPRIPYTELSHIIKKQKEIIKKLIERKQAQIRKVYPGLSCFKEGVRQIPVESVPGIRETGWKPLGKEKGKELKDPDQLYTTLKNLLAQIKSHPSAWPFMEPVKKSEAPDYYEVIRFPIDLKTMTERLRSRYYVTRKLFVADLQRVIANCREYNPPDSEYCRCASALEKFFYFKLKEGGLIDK
KAT2B, sequence (Q92831 whole entry): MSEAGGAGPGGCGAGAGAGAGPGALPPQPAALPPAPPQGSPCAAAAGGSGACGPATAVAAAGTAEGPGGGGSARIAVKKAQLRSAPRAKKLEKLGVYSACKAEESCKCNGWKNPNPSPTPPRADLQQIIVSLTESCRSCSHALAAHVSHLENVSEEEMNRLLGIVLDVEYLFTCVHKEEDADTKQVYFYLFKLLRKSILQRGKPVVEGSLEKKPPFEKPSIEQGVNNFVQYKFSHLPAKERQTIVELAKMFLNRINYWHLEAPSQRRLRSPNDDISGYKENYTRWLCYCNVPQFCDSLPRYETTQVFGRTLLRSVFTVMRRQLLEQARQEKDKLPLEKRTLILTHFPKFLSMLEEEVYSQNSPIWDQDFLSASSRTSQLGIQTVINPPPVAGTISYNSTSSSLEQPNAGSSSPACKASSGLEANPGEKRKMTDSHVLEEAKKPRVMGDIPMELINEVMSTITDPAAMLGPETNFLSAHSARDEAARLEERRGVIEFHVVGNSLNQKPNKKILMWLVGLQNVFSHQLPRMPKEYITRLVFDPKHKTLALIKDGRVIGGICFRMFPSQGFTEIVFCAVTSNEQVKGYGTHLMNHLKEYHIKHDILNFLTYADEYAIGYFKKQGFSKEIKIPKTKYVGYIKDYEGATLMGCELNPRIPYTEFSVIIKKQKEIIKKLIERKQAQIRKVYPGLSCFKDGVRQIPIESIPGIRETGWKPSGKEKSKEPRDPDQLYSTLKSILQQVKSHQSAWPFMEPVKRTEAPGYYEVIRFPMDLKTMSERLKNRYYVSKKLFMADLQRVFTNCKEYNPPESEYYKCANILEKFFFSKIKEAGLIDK

Structure (SMILES)	DC50 (KAT2A)	DC50 (KAT2B)
CN1C[C@H](Nc2cnn(C)c(=O)c2Br)C[C@H](c2ccc(CN3CCN(c4ccc5c(C6CCC(=O)NC6=O)cncc5c4)CC3)cc2)C1 (stereo partly drawn) [Compound 380]	< 1 nM	< 1 nM
CN1C[C@H](Nc2cnn(C)c(=O)c2Cl)C[C@H](c2ccc(CN3CCN(c4ccc5c(C6CCC(=O)NC6=O)cncc5c4)CC3)cc2)C1 (stereo partly drawn) [Compound 381]	1 to 30 nM	< 1 nM
CN1C[C@H](Nc2cnn(C)c(=O)c2Br)C[C@H](c2ccc(CN3CCN(c4ccc5c(C6CCC(=O)NC6=O)nccc5c4)CC3)cc2)C1 (stereo partly drawn) [Compound 382]	< 1 nM	< 1 nM
CN1C[C@H](Nc2cnn(C)c(=O)c2Cl)C[C@H](c2ccc(CN3CCN(c4ccc5c(C6CCC(=O)NC6=O)nccc5c4)CC3)cc2)C1 (stereo partly drawn) [Compound 383]	< 1 nM	1 to 30 nM
CN1C[C@H](Nc2cnn(C)c(=O)c2Br)C[C@H](c2ccc(C(=O)N3CCN(c4ccc5nc(C6CCC(=O)NC6=O)ccc5c4)CC3)cc2)C1 (stereo partly drawn) [Compound 384]	< 1 nM	< 1 nM
CN1C[C@H](Nc2cnn(C)c(=O)c2Br)C[C@H](c2ccc(CN3CCN(c4ccc5nc(C6CCC(=O)NC6=O)ccc5c4)CC3)cc2)C1 (stereo partly drawn) [Compound 385]	1 to 30 nM	1 to 30 nM
CN1C[C@H](Nc2cnn(C)c(=O)c2Br)C[C@H](c2ccc(CN3CCC(c4cccc(C5CCC(=O)NC5=O)c4)C(F)(F)C3)cc2)C1 (stereo partly drawn) [Compound 386]	1 to 30 nM	> 30 nM
Cc1c(N[C@@H]2C[C@H](c3ccc(CN4CCC(c5cccc(C6CCC(=O)NC6=O)c5)C(F)(F)C4)cc3)CN(C)C2)cnn(C)c1=O (stereo partly drawn) [Compound 387]	< 1 nM	> 30 nM
CN1C[C@H](Nc2cnn(C)c(=O)c2Br)C[C@H](c2ccc(CN3CCC(c4ccc5c(C6CCC(=O)NC6=O)cncc5c4)C(F)(F)C3)cc2)C1 (stereo partly drawn) [Compound 388]	< 1 nM	< 1 nM
CN1C[C@H](Nc2cnn(C)c(=O)c2Cl)C[C@H](c2ccc(CN3CCC(c4ccc5c(C6CCC(=O)NC6=O)cncc5c4)C(F)(F)C3)cc2)C1 (stereo partly drawn) [Compound 389]	< 1 nM	< 1 nM
CN1C[C@H](Nc2cnn(C)c(=O)c2Cl)C[C@H](c2ccc(CN3CCC(c4cccc(C5CCC(=O)NC5=O)c4)C(F)(F)C3)cc2)C1 (stereo partly drawn) [Compound 390]	1 to 30 nM	> 30 nM
CN1C[C@H](Nc2cnn(C)c(=O)c2Br)C[C@H](c2ccc(CN3CCC(c4ccc5c(c4)C(=O)N(C4CCC(=O)NC4=O)C5=O)C(F)(F)C3)cc2)C1 (stereo partly drawn) [Compound 391]	> 30 nM	< 1 nM
Cc1cc(N2CCC3(CCN(C(=O)c4ccc([C@H]5C[C@@H](Nc6cnn(C)c(=O)c6Br)CN(C)C5)cc4)CC3)CC2)ccc1N1CCC(=O)NC1=O [Compound 395]	< 1 nM	< 1 nM
Cc1cc(N2CCC3(CCN(C(=O)c4ccc([C@H]5C[C@@H](Nc6cnn(C)c(=O)c6Cl)CN(C)C5)cc4)CC3)CC2)ccc1N1CCC(=O)NC1=O [Compound 396]	< 1 nM	< 1 nM
CN1C[C@H](Nc2cnn(C)c(=O)c2Br)C[C@H](c2ccc(C(=O)N3CCC4(CC3)CCN(c3ccc(N5CCC(=O)NC5=O)c(F)c3)CC4)cc2)C1 [Compound 397]	< 1 nM	< 1 nM
CN1C[C@H](Nc2cnn(C)c(=O)c2Cl)C[C@H](c2ccc(C(=O)N3CCC4(CC3)CCN(c3ccc(N5CCC(=O)NC5=O)c(F)c3)CC4)cc2)C1 [Compound 398]	< 1 nM	< 1 nM
Cc1cc(N2CCC3(CCN(C(=O)c4ccc([C@H]5C[C@@H](Nc6cnn(C)c(=O)c6Cl)CN(C)C5)cc4)CC3)CC2)cc(C)c1N1CCC(=O)NC1=O [Compound 399]	> 30 nM	> 30 nM
CN1C[C@H](Nc2cnn(C)c(=O)c2Cl)C[C@H](c2ccc(N3CCC4(CC3)CCN(c3cccc(CN5CCC(=O)NC5=O)c3)CC4)cc2)C1 [Compound 401]	< 1 nM	> 30 nM
CN1C[C@H](Nc2cnn(C)c(=O)c2Br)C[C@H](c2ccc(C(=O)N3CCC4(CC3)CCN(c3ccc(C(=O)NC5CCC(=O)NC5=O)nc3)CC4)cc2)C1 (stereo partly drawn) [Compound 402]	< 1 nM	< 1 nM
CN1C[C@H](Nc2cnn(C)c(=O)c2Cl)C[C@H](c2ccc(C(=O)N3CCC4(CC3)CCN(c3ccc(C(=O)NC5CCC(=O)NC5=O)nc3)CC4)cc2)C1 (stereo partly drawn) [Compound 403]	< 1 nM	1 to 30 nM
CN1C[C@H](Nc2cnn(C)c(=O)c2Br)C[C@H](c2ccc(C(=O)N3CCC4(CC3)CCN(c3cnc(C(=O)NC5CCC(=O)NC5=O)c(F)c3)CC4)cc2)C1 (stereo partly drawn) [Compound 404]	< 1 nM	1 to 30 nM
CN1C[C@H](Nc2cnn(C)c(=O)c2Cl)C[C@H](c2ccc(C(=O)N3CCC4(CC3)CCN(c3ccc(C(=O)NC5CCC(=O)NC5=O)c(F)c3)CC4)cc2)C1 (stereo partly drawn) [Compound 405]	< 1 nM	1 to 30 nM
Cc1ncsc1-c1ccc(CNC(=O)[C@@H]2C[C@@H](O)CN2C(=O)[C@@H](NC(=O)CN2CCN(C3CCN(C(=O)c4ccc([C@H]5C[C@@H](Nc6cnn(C)c(=O)c6Br)CN(C)C5)cc4)CC3)CC2)C(C)(C)C)cc1 [Compound 408]	> 30 nM	> 30 nM
Cc1ncsc1-c1ccc(CNC(=O)[C@@H]2C[C@@H](O)CN2C(=O)[C@@H](NC(=O)CN2CCC(N3CCN(C(=O)c4ccc([C@H]5C[C@@H](Nc6cnn(C)c(=O)c6Br)CN(C)C5)cc4)CC3)CC2)C(C)(C)C)cc1 [Compound 409]	1 to 30 nM	> 30 nM
Cc1ncsc1-c1ccc(CNC(=O)[C@@H]2C[C@@H](O)CN2C(=O)[C@@H](NC(=O)CC2CCN(C(=O)c3ccc([C@H]4C[C@@H](Nc5cnn(C)c(=O)c5Br)CN(C)C4)cc3)CC2)C(C)(C)C)cc1 [Compound 411]	> 30 nM	> 30 nM
Cc1ncsc1-c1ccc(CNC(=O)[C@@H]2C[C@@H](O)CN2C(=O)[C@@H](NC(=O)CCCCCCCCNC(=O)c2ccc([C@H]3C[C@@H](Nc4cnn(C)c(=O)c4Br)CN(C)C3)cc2)C(C)(C)C)cc1 [Compound 420]	> 30 nM	> 30 nM
Cc1ncsc1-c1ccc(CNC(=O)[C@@H]2C[C@@H](O)CN2C(=O)[C@@H](NC(=O)CCCCCNC(=O)c2ccc([C@H]3C[C@@H](Nc4cnn(C)c(=O)c4Br)CN(C)C3)cc2)C(C)(C)C)cc1 [Compound 421]	> 30 nM	> 30 nM
Cc1ncsc1-c1ccc(CNC(=O)[C@@H]2C[C@@H](O)CN2C(=O)[C@@H](NC(=O)CCCCNC(=O)c2ccc([C@H]3C[C@@H](Nc4cnn(C)c(=O)c4Br)CN(C)C3)cc2)C(C)(C)C)cc1 [Compound 422]	> 30 nM	> 30 nM
Cc1ncsc1-c1ccc(CNC(=O)[C@@H]2C[C@@H](O)CN2C(=O)[C@@H](NC(=O)COCCOCCNC(=O)c2ccc(C3CC(Nc4cnn(C)c(=O)c4Br)CN(C)C3)cc2)C(C)(C)C)cc1 (stereo partly drawn) [Compound 423]	> 30 nM	> 30 nM
Cn1ncc(N[C@@H]2C[C@H](c3ccc(C(=O)N4CCC5(CC4)CCN(c4ccc(C6CCC(=O)NC6=O)cc4)CC5)cc3)CN(C3CC3)C2)c(Br)c1=O (stereo partly drawn) [Compound 424, 3-(4-(9-(4-((3R,5R)-5-((5-bromo-1-methyl-6-oxo-1,6-dihydropyridazin-4-yl)amino)-1-cyclopropylpiperidin-3-yl)benzoyl)-3,9-diazaspiro[5.5]undecan-3-yl)phenyl)piperidine-2,6-dione]	> 30 nM	> 30 nM
